In article PMC4626104, “Inhibition on Proteasome β1 Subunit Might Contribute to the Anti-Cancer Effects of Fangchinoline in Human Prostate Cancer Cells” (PLoS ONE, 2015):

What was measured:
[1] = target: T1, recombinant human proteasome β1 subunit (Homo sapiens, UniProt P28072); assay: Enzyme activity of recombinant proteasome catalytic β1 subunit (Z-LLE-AMC); assay type: biochemical; conditions: 50 μM Z-LLE-AMC, 2 h incubation
T1 construct: His-Tag; made in house; host or cells: Escherichia coli
T1 sequence (P28072 1-239): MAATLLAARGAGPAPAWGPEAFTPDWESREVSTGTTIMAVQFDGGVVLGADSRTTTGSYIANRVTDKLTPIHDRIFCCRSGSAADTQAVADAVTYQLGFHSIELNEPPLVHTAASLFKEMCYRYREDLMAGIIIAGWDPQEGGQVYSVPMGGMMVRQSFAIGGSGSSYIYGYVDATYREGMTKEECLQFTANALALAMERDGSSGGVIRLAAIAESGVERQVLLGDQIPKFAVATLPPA
Experimental: Briefly, catalytic activity of the recombinant human proteasome β1 subunit was assayed by adding recombinant β1 subunit protein (30 μg) to 100 μL of proteasome activity assay buffer (10 mM Tris-HCL, pH 7.8, 5 mM adenosine triphosphate, 0.5 mM dithiothreitol and 5 mM MgCL2•6H2O) containing 50 μM Z-LLE-AMC in the presence of fangchinoline or tetrandrine at different concentrations or not. The hydrolase activity of the proteasome catalytic β1 subunit could release the fluorogenic AMC component from substrate Z-LLE-AMC and the AMC release was measured after 2 h incubation using a Microplate Reader Bio-Rad 550 with excitation and emission wavelengths of 360 and 465 nm, respectively.

[2] = target: T1, recombinant human proteasome β1 subunit; assay: Surface plasmon resonance (Biacore) binding assay
Experimental: The recombinant human proteasome β1 subunit, product of PSMB6 gene, was expressed as His-Tag proteins using Escherichia coli, and then purified by affinity chromatography as reported in our previous study. The binding affinities of fangchinoline or tetrandrine to recombinant proteasome catalytic β1 subunit, were assayed in vitro using an Biacore 3000 instrument (Biacore AB, Rapsgatan 7, S-754 50 Uppsala, Sweden) as reported before. Briefly, recombinant proteasome β1 subunit protein was immobilized on a CM5 sensor chip as ligand in 11624.5 RU with N-ethyl-N’-(3-dimethylaminopropyl) carbodiimide and N-hydroxysuccinimide according to the standard primary amine-coupling procedures, and HBS-EP (10 mM HEPES, 150 mM NaCl, 3 mM EDTA, 0.005% (v/v) surfactant P20, pH 7.4) was used as the running buffer. Equilibration of the baseline was performed by a continuous flow of HBS-EP through the chip surface for 1 to 2 h. Biacore data were collected at 25°C with HBS-EP as the running buffer at a constant flow of 20 μL/min. Fangchinoline or tetradrine was serially diluted into the running buffer to 0, 2.4, 3.43, 4.90, 7.0, 10 and 20 μM. The samples were injected into the channels at a flow rate of 20 μL/min, followed by washing with the running buffer. The binding responses were recorded continuously in response units (RU) at a frequency of 1Hz as sensorgrams and presented as a function of time. The association (k a) and dissociation (k d) rate constants, the equilibrium dissociation constant ( KD=kd/ka ) were determined by analysis of the sensorgram-curves obtained at different concentrations of the compound by use of BIA evaluation software version 3.1 (Biacore) and the 1:1 Langmuir binding fitting model.

SMILES: COc1ccc2cc1Oc1ccc(cc1)C[C@H]1c3cc(c(OC)cc3CCN1C)Oc1c(OC)c(OC)cc3c1[C@H](C2)N(C)CC3 [tetrandrine, reference compound]
- Inhibition of enzyme activity of recombinant proteasome β1 subunit [1]: directly inhibit
- Dissociation (k d) ([2]; Biacore, 25°C, 1:1 Langmuir model): 0.0162 S^-1
- Kd ([2]; Biacore, 25°C, 1:1 Langmuir model, read-out: Equilibrium dissociation (K D)): 5.61 µM
- kon ([2]; pH 7.4, read-out: Association (k a)): 2890 M⁻¹ s⁻¹
